# Target: T1, cynomolgus BK1-receptor (Macaca fascicularis, UniProt Q3BCU0)
# T1 construct: expressed in transfected cells; host or cells: CHO cells (homogenate)
# T1 sequence (Q3BCU0 1-352): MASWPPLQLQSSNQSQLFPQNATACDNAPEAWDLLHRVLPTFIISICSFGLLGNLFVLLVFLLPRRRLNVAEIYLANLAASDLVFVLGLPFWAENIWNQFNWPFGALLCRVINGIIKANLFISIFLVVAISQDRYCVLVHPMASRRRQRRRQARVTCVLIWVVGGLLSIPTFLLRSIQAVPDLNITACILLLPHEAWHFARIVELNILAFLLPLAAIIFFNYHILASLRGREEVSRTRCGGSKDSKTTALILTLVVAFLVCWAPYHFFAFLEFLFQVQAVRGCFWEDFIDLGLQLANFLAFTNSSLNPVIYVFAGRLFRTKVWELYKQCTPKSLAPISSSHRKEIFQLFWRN
# Assay: cynoBK1-receptor binding assay
# Conditions: CHO cells expressing cynomolgus BK1-receptor, radioligand kallidine (DesArg10,Leu9)
# Method in brief: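 Radioligand competition on homogenates of CHO cells expressing cynomolgus BK1 receptor (50 to 250 μg protein/assay), incubated 60-180 minutes at ambient temperature with 0.5 to 5.0 nM [3H]kallidine (DesArg10,Leu9) plus increasing test compound. Filtration binding; non-specific defined with 1.0 μM kallidine (DesArg10); Ki from non-linear curve fitting.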
row,SMILES,Ki
1,O=C(NC1(C(=O)NCc2ccc(Nc3ccc(F)cc3C(F)(F)F)cn2)CC1)c1ccc(C(F)(F)F)nc1 [(254)],257 nM
2,CNc1ncc(C(=O)N[C@@]2(C(=O)NCc3ncc(Nc4ccc(Cl)cc4C(F)(F)F)cc3F)CCOC2)cn1 [(276)],17 nM
3,N#Cc1ccccc1Nc1ccc(CNC(=O)C2(NC(=O)c3cncnc3)CC2)c(F)c1 [(296)],28 nM
4,Cc1cncc(C(=O)NC2(C(=O)NCc3ncc(Nc4c(F)cccc4C(F)(F)F)cc3F)CC2)c1 [(131)],33 nM
5,O=C(NC1(C(=O)NCc2ccc(Nc3ccc(C(F)(F)F)cc3C(F)(F)F)cn2)CC1)c1cncnc1 [(52)],312 nM
6,Cc1cncc(C(=O)N[C@@]2(C(=O)NCc3ccc(Nc4ccc(F)cc4C(F)(F)F)cc3)CCOC2)c1 [(308)],427 nM
7,N#Cc1c(F)cccc1Nc1ccc(CNC(=O)C2(NC(=O)c3cncnc3)CC2)cc1 [(115)],> 500 nM
8,CC(NC(=O)C1(NC(=O)c2cncnc2)CC1)c1ccc(Nc2ccc(Cl)cc2C(F)(F)F)cn1 (centres unmarked) [(164)],3.4 nM
9,O=C(NC1(C(=O)NCc2ccc(Nc3ccc(F)cc3C(F)(F)F)cn2)CC1)c1ccc(Cl)nc1 [(253)],49 nM
10,O=C(CC(F)(F)F)NC1(C(=O)NCc2ccc(Nc3ccc(F)cc3C(F)(F)F)cc2)CC1 [(30)],13 nM
11,O=C(NC1(C(=O)NCc2ccc(Nc3ccc(F)cc3C(F)(F)F)cn2)CC1)c1cnc2cc[nH]c2c1 [(255)],15 nM
12,Cc1cc(Nc2ccc(Cl)cc2C(F)(F)F)cnc1CNC(=O)C1(NC(=O)c2cncc(N)c2)CC1 [(361)],10 nM
13,O=C(NC1(C(=O)NCc2ccc(Nc3ccc(Cl)cc3C(F)(F)F)cn2)CC1)c1cccc(O)n1 [(211)],25 nM
14,O=C(N[C@@]1(C(=O)NCc2ncc(Nc3ccc(F)cc3C(F)(F)F)cc2Cl)CCOC1)c1cnc2[nH]cnc2c1 [(220)],15 nM
15,Nc1cncc(C(=O)NC2(C(=O)NCc3ccc(Nc4ccc(F)cc4C(F)(F)F)cn3)CC2)c1 [(142)],12 nM
16,CCNc1ccc(C(=O)NC2(C(=O)NCc3ccc(Nc4ccc(Cl)cc4C(F)(F)F)cn3)CC2)cn1 [(329)],24 nM
17,Cc1ccc(Nc2ccc(CNC(=O)C3(NC(=O)c4cncnc4)CC3)nc2)c(C(F)(F)F)c1 [(51)],38 nM
18,O=C(NC1(C(=O)NCc2ccc(Nc3ccc(Cl)cc3C(F)(F)F)cn2)CC1)c1ccnc(O)c1 [(207)],84 nM
19,O=C(NC1(C(=O)NCc2ccc(Nc3ccc(Cl)cc3Cl)cn2)CC1)c1cncnc1 [(166)],45 nM
20,Cc1ncc(C(=O)NC2(C(=O)NCc3ncc(Nc4c(F)cccc4C(F)(F)F)cc3F)CC2)cn1 [(134)],4.7 nM
21,O=C(NC1(C(=O)NCc2ccc(Nc3ccc(Cl)cc3C(F)(F)F)cn2)CC1)c1cnc(NC2CC2)nc1 [(379)],5.5 nM
22,O=C(NC1(C(=O)NCc2ccc(Nc3ccc(Cl)cc3C(F)(F)F)cn2)CC1)C(F)(F)F [(362)],101 nM
23,COc1cncc(C(=O)N[C@@]2(C(=O)NCc3ccc(Nc4ccc(Cl)cc4C(F)(F)F)cc3)CCOC2)c1 [(337)],312 nM
24,O=C(N[C@@]1(C(=O)NCc2ncc(Nc3ccc(F)cc3C(F)(F)F)cc2Cl)CCOC1)c1cncnc1 [(216)],7.8 nM
25,O=C(NC1(C(=O)NCc2ccc(Nc3ccc(F)cc3C(F)(F)F)cc2)CC1)c1cncnc1 [(33)],1.9 nM
26,Cn1ncc(C(=O)NC2(C(=O)NCc3ccc(Nc4ccc(F)cc4C(F)(F)F)cn3)CC2)cc1=O [(221)],13 nM
27,CN(C)c1ccc(C(=O)NC2(C(=O)NCc3ccc(Nc4ccc(Br)cc4C(F)(F)F)cn3)CC2)cn1 [(268)],281 nM

row,SMILES,Ki
1,Nc1cncc(C(=O)N[C@@]2(C(=O)NCc3ncc(Nc4ccccc4C(F)(F)F)cc3Cl)CCOC2)c1 [(229)],27 nM
2,Nc1ncc(C(=O)NC2(C(=O)NCc3ccc(Nc4ccc(Cl)cc4C(F)(F)F)cn3)CC2)cc1Br [(378)],4.6 nM
3,CNc1cc(C(=O)NC2(C(=O)NCc3ccc(Nc4ccc(F)cc4C(F)(F)F)cn3)CC2)cnn1 [(227)],97 nM
4,O=C(NC1(C(=O)NCc2ccc(Nc3ccc(F)cc3C(F)(F)F)cn2)CC1)c1cnc(N2CCCCC2)nc1 [(248)],276 nM
5,CC(C)Oc1ccc(Nc2ccc(CNC(=O)C3(NC(=O)c4cncnc4)CC3)cc2)c(C(F)(F)F)c1 [(119)],375 nM
6,O=C(N[C@@]1(C(=O)NCc2ccc(Nc3ccccc3C(F)(F)F)cc2)CCOC1)c1ccnnc1 [(64)],98 nM
7,CC(C)c1ncc(C(=O)N[C@@]2(C(=O)NCc3ccc(Nc4ccc(F)cc4C(F)(F)F)cc3)CCOC2)cn1 [(310)],39 nM
8,O=C(NC1(C(=O)NCc2ccc(Nc3c(F)cccc3Br)cn2)CC1)c1cncnc1 [(326)],504 nM
9,N#CC1(C(=O)NC2(C(=O)NCc3ccc(Nc4ccc(Cl)cc4C(F)(F)F)cn3)CC2)CC1 [(367)],508 nM
10,Cc1ncc(C(=O)NC2(C(=O)NCc3ncc(Nc4ccc(F)cc4C(F)(F)F)cc3C)CC2)cn1 [(344)],1.9 nM
11,CC(=O)Nc1ncc(C(=O)NC2(C(=O)NCc3ccc(Nc4ccc(F)cc4C(F)(F)F)cn3)CC2)s1 [(257)],17 nM
12,O=C(NC1(C(=O)NCc2ccc(Nc3ccc(Cl)cc3C(F)(F)F)cn2)CC1)c1ccns1 [(357)],44 nM
13,O=C(NC1(C(=O)NCc2ccc(Nc3ccc(F)cc3C(F)(F)F)cn2)CC1)c1cnc(C(F)(F)F)nc1 [(246)],21 nM
14,Cc1ccc(C(=O)NC2(C(=O)NCc3ccc(Nc4ccc(Cl)cc4C(F)(F)F)cn3)CC2)cn1 [(312)],57 nM
15,Nc1ncc(C(=O)NC2(C(=O)NCc3ccc(Nc4ccc(Cl)cc4C(F)(F)F)cn3)CC2)cn1 [(370)],1.4 nM
16,O=C(NC1(C(=O)NCc2ccc(Nc3c(F)cccc3C(F)(F)F)cn2)CC1)c1cncnc1 [(44)],7 nM
17,N#CCC(=O)NC1(C(=O)NCc2ccc(Nc3ccc(Cl)cc3C(F)(F)F)cn2)CC1 [(364)],77 nM
18,Nc1cncc(C(=O)N[C@@]2(C(=O)NCc3ncc(Nc4c(F)cccc4C(F)(F)F)cc3Cl)CCOC2)c1 [(237)],151 nM
19,Cc1cc(Br)ccc1Nc1ccc(CNC(=O)C2(NC(=O)c3cncnc3)CC2)nc1 [(53)],197 nM
20,O=C(NC1(C(=O)NCc2ccc(Nc3ccc(Cl)cc3C(F)(F)F)cn2)CC1)c1ccnc(F)c1 [(355)],433 nM
21,N#Cc1cccc(F)c1Nc1ccc(CNC(=O)C2(NC(=O)c3cncnc3)CC2)cc1 [(116)],> 500 nM
22,Nc1ccc(C(=O)N[C@@]2(C(=O)NCc3ccc(Nc4ccc(F)cc4C(F)(F)F)cc3)CCOC2)cn1 [(309)],184 nM
23,O=C(N[C@@]1(C(=O)NCc2ccc(Nc3ccc(F)cc3C(F)(F)F)cn2)CCOC1)c1cncnc1 [(43)],36 nM
24,O=C(CC(F)(F)F)N[C@@]1(C(=O)NCc2ncc(Nc3ccc(F)cc3C(F)(F)F)cc2Cl)CCOC1 [(225)],68 nM
25,Cc1ncc(C(=O)N[C@@]2(C(=O)NCc3ccc(Nc4ccc(Cl)cc4C(F)(F)F)cc3)CCOC2)cn1 [(317)],30 nM
26,CN(C)c1ccc(C(=O)NC2(C(=O)NCc3ccc(Nc4ccc(Cl)cc4C(F)(F)F)cn3)CC2)cn1 [(263)],485 nM

# Same assay, conditions: at 10 μgmol/L; CHO cells expressing cynomolgus BK1-receptor, radioligand kallidine (DesArg10,Leu9)
row,SMILES,inhibition at 10 µM
1,O=C(N[C@@]1(C(=O)NCc2ccc(Nc3ccccc3C(F)(F)F)cc2)CCOC1)c1cncs1 [(89)],96%
2,Cc1cncc(C(=O)NC2(C(=O)NCc3ncc(Nc4c(F)cccc4C(F)(F)F)cc3F)CC2)c1 [(131)],105%
3,O=C(NC1(C(=O)NCc2ccc(Nc3ccc(C(F)(F)F)cc3C(F)(F)F)cn2)CC1)c1cncnc1 [(52)],63%
4,N#Cc1c(F)cccc1Nc1ccc(CNC(=O)C2(NC(=O)c3cncnc3)CC2)cc1 [(115)],99%
5,CC(NC(=O)C1(NC(=O)c2cncnc2)CC1)c1ccc(Nc2ccc(Cl)cc2C(F)(F)F)cn1 (centres unmarked) [(164)],106%
6,O=C(CC(F)(F)F)NC1(C(=O)NCc2ccc(Nc3ccc(F)cc3C(F)(F)F)cc2)CC1 [(30)],111%
7,O=C1CCCC(C(=O)N[C@@]2(C(=O)NCc3ccc(Nc4ccccc4C(F)(F)F)cc3)CCOC2)C1 (some centres unmarked) [(69)],42%
8,Nc1cncc(C(=O)NC2(C(=O)NCc3ccc(Nc4ccc(F)cc4C(F)(F)F)cn3)CC2)c1 [(142)],106%
9,O=C(NC1(C(=O)NCc2ncc(Nc3ccc(Br)cc3C(F)(F)F)cc2F)CC1)c1cncnc1 [(179)],101%
10,Cc1ccc(Nc2ccc(CNC(=O)C3(NC(=O)c4cncnc4)CC3)nc2)c(C(F)(F)F)c1 [(51)],112%
11,O=C(NC1(C(=O)NCc2ccc(Nc3ccccc3C(F)(F)F)cc2)CC1)c1cncnc1 [(4)],109%
12,O=C(NC1(C(=O)NCc2ccc(Nc3ccc(Cl)cc3Cl)cn2)CC1)c1cncnc1 [(166)],104%
13,Cc1ncc(C(=O)NC2(C(=O)NCc3ncc(Nc4c(F)cccc4C(F)(F)F)cc3F)CC2)cn1 [(134)],101%
14,O=C(NC1(C(=O)NCc2ccc(Nc3ccc(F)cc3C(F)(F)F)cc2)CC1)c1cncnc1 [(33)],110%
15,O=C(NC1(C(=O)NCc2ccc(Nc3ccccc3C(F)(F)F)cc2)CC1)C1CC1 [(15)],99%
16,O=C(CC1CC1)NC1(C(=O)NCc2ccc(Nc3ccccc3C(F)(F)F)cc2)CC1 [(19)],96%
17,COC1CC(C(=O)N[C@@]2(C(=O)NCc3ccc(Nc4ccccc4C(F)(F)F)cc3)CCOC2)C1 (some centres unmarked) [(75)],71%
18,O=C(N[C@@]1(C(=O)NCc2ccc(Nc3ccccc3C(F)(F)F)cc2)CCOC1)c1ccc(=O)[nH]n1 [(62)],60%
19,CC(C)Oc1ccc(Nc2ccc(CNC(=O)C3(NC(=O)c4cncnc4)CC3)cc2)c(C(F)(F)F)c1 [(119)],82%
20,O=C(N[C@@]1(C(=O)NCc2ccc(Nc3ccccc3C(F)(F)F)cc2)CCOC1)c1ccnnc1 [(64)],109%
21,O=C(NC1(C(=O)NCc2ccc(Nc3c(F)cccc3C(F)(F)F)cn2)CC1)c1cncnc1 [(44)],109%
22,O=C(N[C@@]1(C(=O)NCc2ccc(Nc3ccccc3C(F)(F)F)cc2)CCOC1)c1ccco1 [(94)],57%
23,Cc1cc(Br)ccc1Nc1ccc(CNC(=O)C2(NC(=O)c3cncnc3)CC2)nc1 [(53)],101%
24,N#Cc1cccc(F)c1Nc1ccc(CNC(=O)C2(NC(=O)c3cncnc3)CC2)cc1 [(116)],83%
25,Cn1cc(C(=O)N[C@@]2(C(=O)NCc3ccc(Nc4ccccc4C(F)(F)F)cc3)CCOC2)nn1 [(88)],80%
26,O=C(N[C@@]1(C(=O)NCc2ccc(Nc3ccc(F)cc3C(F)(F)F)cn2)CCOC1)c1cncnc1 [(43)],94%
27,Cc1ncc(C(=O)N[C@@]2(C(=O)NCc3ccc(Nc4ccccc4C(F)(F)F)cc3)CCOC2)c(C)n1 [(80)],88%
28,CCN(c1ccccc1)c1ccc(CNC(=O)C2(NC(=O)c3cncnc3)CC2)cc1 [(111)],20%
29,O=C1CCC(C(=O)N[C@@]2(C(=O)NCc3ccc(Nc4ccccc4C(F)(F)F)cc3)CCOC2)CN1 (some centres unmarked) [(76)],80%
30,O=C(N[C@@]1(C(=O)NCc2ccc(Nc3ccccc3C(F)(F)F)cc2)CCOC1)c1ccncc1 [(95)],86%

# Source: US20130131075A1, “NEW COMPOUNDS” (Boehringer Ingelheim International GmbH, priority 2009, published 2013)
